From PubChem BioAssay (NCI)
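Grown in 96-well plates, cells were treated for 48 hours with each compound at five concentrations. Insufficient inhibition: endpoint recorded as highest concentration tested. At the TGI there is no net growth.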

System: TK-10 renal
Test: NCI tumour cell line growth inhibition, 48 h

Compound	TGI
CCC12CCCN(Cc3ccccc3)C1c1c(n(C)c3ccccc13)C(C(=O)OC)C2 (centres undefined)	> 239 µM
COc1ccc2c(c1)[n+]([O-])c(-c1ccc(OC)c(OC)c1)c(N)[n+]2[O-]	> 100 µM
CC(C)CC(NC(=O)OC(C)(C)C)C(=O)Nc1ccc(Nc2nc(F)nc(-c3c4ccccc4c4n3CCS4)n2)cc1 (centres undefined)	57.5 µM
O=C(O/C(=C(/N=Nc1ccccc1)c1ccccc1)c1ccccc1)c1ccccc1	> 100 µM
COc1cc([C@@H]2c3cc4c(cc3[C@@H](OC(=O)c3ccc(N)cc3)C3COC(=O)[C@@H]32)OCO4)cc(OC)c1O (some centres undefined)	94.2 µM
Cc1ccc(SSc2ccc(C)cc2C(=O)O)c(C(=O)O)c1	> 100 µM
CC(=O)NNc1nc(C)c(C(=O)/C=C/c2ccccc2Cl)s1	> 100 µM
O=C1NC2(CCCCCC2)C2CCCCCCC12O (centres undefined)	> 100 µM

System: SK-MEL-5 melanoma
Test: NCI tumour cell line growth inhibition, 48 h

Compound	TGI
CCC12CCCN(Cc3ccccc3)C1c1c(n(C)c3ccccc13)C(C(=O)OC)C2 (centres undefined)	97.1 µM
COc1ccc2c(c1)[n+]([O-])c(-c1ccc(OC)c(OC)c1)c(N)[n+]2[O-]	83 µM
CC(C)CC(NC(=O)OC(C)(C)C)C(=O)Nc1ccc(Nc2nc(F)nc(-c3c4ccccc4c4n3CCS4)n2)cc1 (centres undefined)	41.2 µM
O=C(O/C(=C(/N=Nc1ccccc1)c1ccccc1)c1ccccc1)c1ccccc1	> 100 µM
COc1cc([C@@H]2c3cc4c(cc3[C@@H](OC(=O)c3ccc(N)cc3)C3COC(=O)[C@@H]32)OCO4)cc(OC)c1O (some centres undefined)	16.7 µM
Cc1ccc(SSc2ccc(C)cc2C(=O)O)c(C(=O)O)c1	> 100 µM
CC(=O)NNc1nc(C)c(C(=O)/C=C/c2ccccc2Cl)s1	> 100 µM
O=C1NC2(CCCCCC2)C2CCCCCCC12O (centres undefined)	> 100 µM

System: KM20L2 colon
Test: NCI tumour cell line growth inhibition, 48 h

Compound	TGI
CCC12CCCN(Cc3ccccc3)C1c1c(n(C)c3ccccc13)C(C(=O)OC)C2 (centres undefined)	> 239 µM
COc1ccc2c(c1)[n+]([O-])c(-c1ccc(OC)c(OC)c1)c(N)[n+]2[O-]	> 100 µM
CC(C)CC(NC(=O)OC(C)(C)C)C(=O)Nc1ccc(Nc2nc(F)nc(-c3c4ccccc4c4n3CCS4)n2)cc1 (centres undefined)	32.3 µM
O=C(O/C(=C(/N=Nc1ccccc1)c1ccccc1)c1ccccc1)c1ccccc1	> 100 µM
COc1cc([C@@H]2c3cc4c(cc3[C@@H](OC(=O)c3ccc(N)cc3)C3COC(=O)[C@@H]32)OCO4)cc(OC)c1O (some centres undefined)	3.57 µM
Cc1ccc(SSc2ccc(C)cc2C(=O)O)c(C(=O)O)c1	> 100 µM
CC(=O)NNc1nc(C)c(C(=O)/C=C/c2ccccc2Cl)s1	> 100 µM

System: SN12C renal
Test: NCI tumour cell line growth inhibition, 48 h

Compound	TGI
CCC12CCCN(Cc3ccccc3)C1c1c(n(C)c3ccccc13)C(C(=O)OC)C2 (centres undefined)	> 239 µM
COc1ccc2c(c1)[n+]([O-])c(-c1ccc(OC)c(OC)c1)c(N)[n+]2[O-]	> 100 µM
CC(C)CC(NC(=O)OC(C)(C)C)C(=O)Nc1ccc(Nc2nc(F)nc(-c3c4ccccc4c4n3CCS4)n2)cc1 (centres undefined)	43.5 µM
O=C(O/C(=C(/N=Nc1ccccc1)c1ccccc1)c1ccccc1)c1ccccc1	> 100 µM
COc1cc([C@@H]2c3cc4c(cc3[C@@H](OC(=O)c3ccc(N)cc3)C3COC(=O)[C@@H]32)OCO4)cc(OC)c1O (some centres undefined)	40.1 µM
Cc1ccc(SSc2ccc(C)cc2C(=O)O)c(C(=O)O)c1	> 100 µM
CC(=O)NNc1nc(C)c(C(=O)/C=C/c2ccccc2Cl)s1	> 100 µM
O=C1NC2(CCCCCC2)C2CCCCCCC12O (centres undefined)	> 100 µM

System: OVCAR-3 ovarian
Test: NCI tumour cell line growth inhibition, 48 h

Compound	TGI
CCC12CCCN(Cc3ccccc3)C1c1c(n(C)c3ccccc13)C(C(=O)OC)C2 (centres undefined)	170 µM
COc1ccc2c(c1)[n+]([O-])c(-c1ccc(OC)c(OC)c1)c(N)[n+]2[O-]	> 100 µM
CC(C)CC(NC(=O)OC(C)(C)C)C(=O)Nc1ccc(Nc2nc(F)nc(-c3c4ccccc4c4n3CCS4)n2)cc1 (centres undefined)	36.7 µM
COc1cc([C@@H]2c3cc4c(cc3[C@@H](OC(=O)c3ccc(N)cc3)C3COC(=O)[C@@H]32)OCO4)cc(OC)c1O (some centres undefined)	35 µM
CC(=O)NNc1nc(C)c(C(=O)/C=C/c2ccccc2Cl)s1	> 100 µM
O=C1NC2(CCCCCC2)C2CCCCCCC12O (centres undefined)	> 100 µM

System: M19-MEL melanoma
Test: NCI tumour cell line growth inhibition, 48 h

Compound	TGI
CCC12CCCN(Cc3ccccc3)C1c1c(n(C)c3ccccc13)C(C(=O)OC)C2 (centres undefined)	> 239 µM
COc1ccc2c(c1)[n+]([O-])c(-c1ccc(OC)c(OC)c1)c(N)[n+]2[O-]	> 100 µM
COc1cc([C@@H]2c3cc4c(cc3[C@@H](OC(=O)c3ccc(N)cc3)C3COC(=O)[C@@H]32)OCO4)cc(OC)c1O (some centres undefined)	> 95 µM
Cc1ccc(SSc2ccc(C)cc2C(=O)O)c(C(=O)O)c1	> 100 µM
CC(=O)NNc1nc(C)c(C(=O)/C=C/c2ccccc2Cl)s1	> 100 µM
O=C1NC2(CCCCCC2)C2CCCCCCC12O (centres undefined)	> 100 µM

System: MALME-3M melanoma
Test: NCI tumour cell line growth inhibition, 48 h

Compound	TGI
CCC12CCCN(Cc3ccccc3)C1c1c(n(C)c3ccccc13)C(C(=O)OC)C2 (centres undefined)	> 239 µM
COc1ccc2c(c1)[n+]([O-])c(-c1ccc(OC)c(OC)c1)c(N)[n+]2[O-]	> 100 µM
CC(C)CC(NC(=O)OC(C)(C)C)C(=O)Nc1ccc(Nc2nc(F)nc(-c3c4ccccc4c4n3CCS4)n2)cc1 (centres undefined)	38.9 µM
O=C(O/C(=C(/N=Nc1ccccc1)c1ccccc1)c1ccccc1)c1ccccc1	> 100 µM
COc1cc([C@@H]2c3cc4c(cc3[C@@H](OC(=O)c3ccc(N)cc3)C3COC(=O)[C@@H]32)OCO4)cc(OC)c1O (some centres undefined)	63.5 µM
Cc1ccc(SSc2ccc(C)cc2C(=O)O)c(C(=O)O)c1	> 100 µM
CC(=O)NNc1nc(C)c(C(=O)/C=C/c2ccccc2Cl)s1	> 100 µM
O=C1NC2(CCCCCC2)C2CCCCCCC12O (centres undefined)	> 100 µM

System: NCI-H226 lung
Test: NCI tumour cell line growth inhibition, 48 h

Compound	TGI
CCC12CCCN(Cc3ccccc3)C1c1c(n(C)c3ccccc13)C(C(=O)OC)C2 (centres undefined)	> 239 µM
COc1ccc2c(c1)[n+]([O-])c(-c1ccc(OC)c(OC)c1)c(N)[n+]2[O-]	> 100 µM
O=C(O/C(=C(/N=Nc1ccccc1)c1ccccc1)c1ccccc1)c1ccccc1	> 100 µM
COc1cc([C@@H]2c3cc4c(cc3[C@@H](OC(=O)c3ccc(N)cc3)C3COC(=O)[C@@H]32)OCO4)cc(OC)c1O (some centres undefined)	33.6 µM
Cc1ccc(SSc2ccc(C)cc2C(=O)O)c(C(=O)O)c1	> 100 µM
CC(=O)NNc1nc(C)c(C(=O)/C=C/c2ccccc2Cl)s1	> 100 µM

System: NCI-H460 lung
Test: NCI tumour cell line growth inhibition, 48 h

Compound	TGI
CCC12CCCN(Cc3ccccc3)C1c1c(n(C)c3ccccc13)C(C(=O)OC)C2 (centres undefined)	> 239 µM
COc1ccc2c(c1)[n+]([O-])c(-c1ccc(OC)c(OC)c1)c(N)[n+]2[O-]	> 100 µM
CC(C)CC(NC(=O)OC(C)(C)C)C(=O)Nc1ccc(Nc2nc(F)nc(-c3c4ccccc4c4n3CCS4)n2)cc1 (centres undefined)	36.5 µM
O=C(O/C(=C(/N=Nc1ccccc1)c1ccccc1)c1ccccc1)c1ccccc1	> 100 µM
COc1cc([C@@H]2c3cc4c(cc3[C@@H](OC(=O)c3ccc(N)cc3)C3COC(=O)[C@@H]32)OCO4)cc(OC)c1O (some centres undefined)	46.7 µM
Cc1ccc(SSc2ccc(C)cc2C(=O)O)c(C(=O)O)c1	> 100 µM
CC(=O)NNc1nc(C)c(C(=O)/C=C/c2ccccc2Cl)s1	> 100 µM
O=C1NC2(CCCCCC2)C2CCCCCCC12O (centres undefined)	> 100 µM

System: SF-539 CNS
Test: NCI tumour cell line growth inhibition, 48 h

Compound	TGI
CCC12CCCN(Cc3ccccc3)C1c1c(n(C)c3ccccc13)C(C(=O)OC)C2 (centres undefined)	> 239 µM
COc1ccc2c(c1)[n+]([O-])c(-c1ccc(OC)c(OC)c1)c(N)[n+]2[O-]	> 100 µM
CC(C)CC(NC(=O)OC(C)(C)C)C(=O)Nc1ccc(Nc2nc(F)nc(-c3c4ccccc4c4n3CCS4)n2)cc1 (centres undefined)	37.7 µM
O=C(O/C(=C(/N=Nc1ccccc1)c1ccccc1)c1ccccc1)c1ccccc1	> 100 µM
COc1cc([C@@H]2c3cc4c(cc3[C@@H](OC(=O)c3ccc(N)cc3)C3COC(=O)[C@@H]32)OCO4)cc(OC)c1O (some centres undefined)	7.99 µM
Cc1ccc(SSc2ccc(C)cc2C(=O)O)c(C(=O)O)c1	> 100 µM
CC(=O)NNc1nc(C)c(C(=O)/C=C/c2ccccc2Cl)s1	> 100 µM
O=C1NC2(CCCCCC2)C2CCCCCCC12O (centres undefined)	> 100 µM

System: CCRF-CEM leukemia
Test: NCI tumour cell line growth inhibition, 48 h

Compound	TGI
CCC12CCCN(Cc3ccccc3)C1c1c(n(C)c3ccccc13)C(C(=O)OC)C2 (centres undefined)	> 239 µM
COc1ccc2c(c1)[n+]([O-])c(-c1ccc(OC)c(OC)c1)c(N)[n+]2[O-]	> 100 µM
CC(C)CC(NC(=O)OC(C)(C)C)C(=O)Nc1ccc(Nc2nc(F)nc(-c3c4ccccc4c4n3CCS4)n2)cc1 (centres undefined)	16.9 µM
COc1cc([C@@H]2c3cc4c(cc3[C@@H](OC(=O)c3ccc(N)cc3)C3COC(=O)[C@@H]32)OCO4)cc(OC)c1O (some centres undefined)	> 95 µM
Cc1ccc(SSc2ccc(C)cc2C(=O)O)c(C(=O)O)c1	> 100 µM
CC(=O)NNc1nc(C)c(C(=O)/C=C/c2ccccc2Cl)s1	> 100 µM
O=C1NC2(CCCCCC2)C2CCCCCCC12O (centres undefined)	> 100 µM

System: LXFL 529 NSCLC
Test: NCI tumour cell line growth inhibition, 48 h

Compound	TGI
CCC12CCCN(Cc3ccccc3)C1c1c(n(C)c3ccccc13)C(C(=O)OC)C2 (centres undefined)	> 239 µM
COc1ccc2c(c1)[n+]([O-])c(-c1ccc(OC)c(OC)c1)c(N)[n+]2[O-]	> 100 µM
CC(C)CC(NC(=O)OC(C)(C)C)C(=O)Nc1ccc(Nc2nc(F)nc(-c3c4ccccc4c4n3CCS4)n2)cc1 (centres undefined)	35.2 µM
O=C(O/C(=C(/N=Nc1ccccc1)c1ccccc1)c1ccccc1)c1ccccc1	> 100 µM
COc1cc([C@@H]2c3cc4c(cc3[C@@H](OC(=O)c3ccc(N)cc3)C3COC(=O)[C@@H]32)OCO4)cc(OC)c1O (some centres undefined)	> 95 µM
Cc1ccc(SSc2ccc(C)cc2C(=O)O)c(C(=O)O)c1	> 100 µM
O=C1NC2(CCCCCC2)C2CCCCCCC12O (centres undefined)	> 100 µM

System: M14 melanoma
Test: NCI tumour cell line growth inhibition, 48 h

Compound	TGI
COc1ccc2c(c1)[n+]([O-])c(-c1ccc(OC)c(OC)c1)c(N)[n+]2[O-]	> 100 µM
CC(C)CC(NC(=O)OC(C)(C)C)C(=O)Nc1ccc(Nc2nc(F)nc(-c3c4ccccc4c4n3CCS4)n2)cc1 (centres undefined)	35.1 µM
COc1cc([C@@H]2c3cc4c(cc3[C@@H](OC(=O)c3ccc(N)cc3)C3COC(=O)[C@@H]32)OCO4)cc(OC)c1O (some centres undefined)	> 95 µM
O=C1NC2(CCCCCC2)C2CCCCCCC12O (centres undefined)	> 100 µM

System: LOX IMVI melanoma
Test: NCI tumour cell line growth inhibition, 48 h

Compound	TGI
CCC12CCCN(Cc3ccccc3)C1c1c(n(C)c3ccccc13)C(C(=O)OC)C2 (centres undefined)	> 239 µM
COc1ccc2c(c1)[n+]([O-])c(-c1ccc(OC)c(OC)c1)c(N)[n+]2[O-]	> 100 µM
COc1cc([C@@H]2c3cc4c(cc3[C@@H](OC(=O)c3ccc(N)cc3)C3COC(=O)[C@@H]32)OCO4)cc(OC)c1O (some centres undefined)	50.7 µM
Cc1ccc(SSc2ccc(C)cc2C(=O)O)c(C(=O)O)c1	> 100 µM
CC(=O)NNc1nc(C)c(C(=O)/C=C/c2ccccc2Cl)s1	> 100 µM
O=C1NC2(CCCCCC2)C2CCCCCCC12O (centres undefined)	> 100 µM

System: 786-0 renal
Test: NCI tumour cell line growth inhibition, 48 h

Compound	TGI
CCC12CCCN(Cc3ccccc3)C1c1c(n(C)c3ccccc13)C(C(=O)OC)C2 (centres undefined)	> 239 µM
COc1ccc2c(c1)[n+]([O-])c(-c1ccc(OC)c(OC)c1)c(N)[n+]2[O-]	> 100 µM
CC(C)CC(NC(=O)OC(C)(C)C)C(=O)Nc1ccc(Nc2nc(F)nc(-c3c4ccccc4c4n3CCS4)n2)cc1 (centres undefined)	34.8 µM
O=C(O/C(=C(/N=Nc1ccccc1)c1ccccc1)c1ccccc1)c1ccccc1	> 100 µM
COc1cc([C@@H]2c3cc4c(cc3[C@@H](OC(=O)c3ccc(N)cc3)C3COC(=O)[C@@H]32)OCO4)cc(OC)c1O (some centres undefined)	59 µM
Cc1ccc(SSc2ccc(C)cc2C(=O)O)c(C(=O)O)c1	> 100 µM
CC(=O)NNc1nc(C)c(C(=O)/C=C/c2ccccc2Cl)s1	> 100 µM
